Consider three molecules from US10532991B2 (TAIPEI MEDICAL UNIVERSITY, priority 2018, dated 2020).

SMILES strings stand for the structures.

The nature of data set [1]: Human liver microsome stability. It is filed as in vitro ADME. As to conditions: human liver microsomes, 1 μM test compound, 37° C.; CLint = k/P. (Liver microsomes are a subcellular fraction often used to study metabolism.)
The conditions of data set [2]: in vivo; cited from earlier work.

Consider `C[C@]12CC[C@H]3[C@@H](CCC4=CC(=O)CC[C@@]43C)[C@@H]1CC[C@@H]2O` [Testosterone, testosterone, reference compound], for which, in data set [1], the “CLint (intrinsic clearance)” value is on record as 0.0727 mL/min/mg Protein.
`[2H]C([2H])([2H])Oc1cc2c(cc1OC([2H])([2H])[2H])C1CC(=O)C(CC(C)C)CN1CC2` (centres unmarked) [deutetrabenazine]: in data set [2], the “area under the curve (AUC)” value was 542 ng·h/mg and the t1/2 was 8.6 h.
Consider `COc1cc2c(cc1OC)C1CC(=O)C(CC(C)C)CN1CC2` (centres unmarked) [tetrabenazine], for which, in data set [2], the “area under the curve (AUC)” value was 261 ng·h/mg and the t1/2 is given as 4.8 h.
